Measurements as given in publication PMC6098982 (Natural product research, 2018).

Columns and labels:
Escherichia coli = assay: Inhibition of Escherichia coli; assay type: cell-based
CB2 receptor = CB2 receptor (Homo sapiens, UniProt P34972); assay: CB2 receptor displacement; assay type: binding
Delta opioid receptor = Delta opioid receptor (Homo sapiens, UniProt P41143); assay: Delta opioid receptor displacement; assay type: binding
Mu opioid receptor = Mu opioid receptor (Homo sapiens, UniProt P35372); assay: Mu opioid receptor displacement; assay type: binding
Trypanosoma brucei = assay: Inhibition of Trypanosoma brucei; assay type: cell-based
Leishmania donovani = assay: Activity towards Leishmania donovani; assay type: cell-based

Sequence of CB2 receptor (P34972 whole entry): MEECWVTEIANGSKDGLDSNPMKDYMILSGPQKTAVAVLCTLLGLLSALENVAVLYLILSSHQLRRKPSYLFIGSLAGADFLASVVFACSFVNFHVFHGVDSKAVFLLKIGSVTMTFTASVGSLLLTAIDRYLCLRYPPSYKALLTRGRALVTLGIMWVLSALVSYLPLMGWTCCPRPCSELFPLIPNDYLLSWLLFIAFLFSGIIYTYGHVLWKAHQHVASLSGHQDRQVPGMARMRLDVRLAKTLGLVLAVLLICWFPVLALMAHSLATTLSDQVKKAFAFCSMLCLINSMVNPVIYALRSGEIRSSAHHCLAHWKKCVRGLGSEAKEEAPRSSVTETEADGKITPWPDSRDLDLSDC
Sequence of Mu opioid receptor (P35372 whole entry): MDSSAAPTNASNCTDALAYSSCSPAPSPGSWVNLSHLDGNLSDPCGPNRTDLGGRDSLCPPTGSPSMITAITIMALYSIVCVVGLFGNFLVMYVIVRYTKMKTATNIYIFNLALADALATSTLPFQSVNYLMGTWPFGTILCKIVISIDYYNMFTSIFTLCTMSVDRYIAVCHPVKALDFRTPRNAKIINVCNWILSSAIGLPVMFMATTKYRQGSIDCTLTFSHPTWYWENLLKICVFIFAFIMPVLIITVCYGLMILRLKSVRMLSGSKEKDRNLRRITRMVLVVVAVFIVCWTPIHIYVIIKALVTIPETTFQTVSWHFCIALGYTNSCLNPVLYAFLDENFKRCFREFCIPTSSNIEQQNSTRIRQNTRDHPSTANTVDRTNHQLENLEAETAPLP
Sequence of Delta opioid receptor (P41143 whole entry): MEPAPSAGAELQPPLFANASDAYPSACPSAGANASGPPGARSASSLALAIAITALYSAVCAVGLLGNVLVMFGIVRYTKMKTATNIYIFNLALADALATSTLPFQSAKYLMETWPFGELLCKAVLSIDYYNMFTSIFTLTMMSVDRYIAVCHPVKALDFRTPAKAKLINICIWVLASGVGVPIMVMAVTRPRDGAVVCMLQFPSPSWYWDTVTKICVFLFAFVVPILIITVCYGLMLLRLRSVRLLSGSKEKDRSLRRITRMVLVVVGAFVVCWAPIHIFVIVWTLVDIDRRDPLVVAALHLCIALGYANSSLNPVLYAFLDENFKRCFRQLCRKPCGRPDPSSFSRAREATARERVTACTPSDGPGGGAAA

Row | Molecule | inhibition towards Escherichia coli Pinh (Escherichia coli) | IC50 (Escherichia coli; read-out: IC50 Escherichia coli) | IC50 (CB2 receptor) | displacement in CB2 receptor (CB2 receptor) | displacement in Delta opioid receptor (Delta opioid receptor) | displacement in Mu opioid receptor (Mu opioid receptor) | inhibition towards Trypanosoma brucei (Trypanosoma brucei) | IC50 (Trypanosoma brucei; Trypanosoma brucei, read-out: IC50 T. brucei) | activity towards Leishmania donovani (Leishmania donovani) | IC50 (Leishmania donovani; Leishmania donovani, read-out: IC50 Leishmania donovani)
1 | myricitrin [Compound 11] | 99% | 1.12 µM |  |  |  |  |  |  |  | 
2 | CC1=C[C@H](O)CC(C)(C)[C@H]1/C=C/C(C)=C/C=C/C(C)=C/C=C/C=C(C)/C=C/C=C(C)/C=C/C1=C(C)C[C@@H](O)CC1(C)C [Compound 4, lutein] |  |  | 56.5 µM | 73% | 65% | 49% | 93% | 4.16 µM | 48% | 9.3 µM
